Measurements taken from patent US20120130146A1, “CONTINUOUS ADMINISTRATION OF CILENGITIDE IN CANCER TREATMENTS” (Merck Patent GmbH, priority 2009, published 2012).

Assays:
[1] = test system: human umbilical vein endothelial cells (HUVECs); assay: Growth (Alamar Blue) assay on HUVEC, Example 5; type: cell-based; details: Homo sapiens
Excerpt: (§1) The methods established and described in detail previously (Goodman and Hahn a; b) were used to measure the effect of combinations of integrin inhibitors and chemotherapeutics on carcinoma cell and human endothelial cell proliferation.
(§2) Points were run in duplicate or in triplicate. Reagent blanks, containing media plus Alamar Blue without cells, were run on each plate. Blank values were subtracted from test values and were routinely 5-10% of uninhibited control values.
(§3) 5.5 Methods of Evaluation and Statistics Chemotherapeutic agents and αv-integrin blockers were serially diluted alone or together (combination therapy). In some assays the chemotherapeutic agent was serially diluted alone or in combination with of alpha-v integrin blocker. Growth inhibition curves were plotted and a shift of the combination therapy curve to lower concentrations in relation to the single agent curves was interpreted as an additional effect, produced by combination versus monotherapy.
(§4) The αv-integrin competitive inhibitor Cilengitide (EMD 121974) was tested alone and in combination with vinorelbine in a serum growth stimulation assay using human carcinoma cells or human umbilical vein endothelial cells (HUVECs). In these assays cells are cultured in serum, or in an endothelial growth stimulation medium (Goodman & Hahn).

[2] = test system: A549; assay: Serum growth stimulation assay on A549 NSCLC cells, Example 5; type: cell-based, human; details: for EC50: Homo sapiens, NSCLC A549, chemotherapeutic alone or + Cilengitide
Excerpt: as §1, §2, §3, §4

[3] = test system: Detroit 562; assay: Cell proliferation assay on SCCHN Detroit 562 cells; type: cell-based, human
[4] = test system: A498; assay: Cell proliferation assay on A498 renal carcinoma cells; type: cell-based, human; details: for EC50: Homo sapiens, Renal A498, chemotherapeutic alone or + Cilengitide
Excerpt: as §1, §2, §3, §4
Cilengitide concentration is 2 μM (constant).

[5] = in combination with 2 μM Cilengitide

| Structure (SMILES) | IC50 ([1]; agent alone) [nM] | IC50 [1, 5] [nM] | enhancement of growth inhibition by the presence of cilengitide ([2]; A549) | EC50 [2] [nM] | enhancement of growth inhibition by the presence of cilengitide [3] | enhancement of growth inhibition by the presence of cilengitide ([4]; A498) | EC50 [4] [nM] |
| --- | --- | --- | --- | --- | --- | --- | --- |
| CCC1=C[C@@H]2CN(C1)Cc1c([nH]c3ccccc13)[C@@](C(=O)OC)(c1cc3c(cc1OC)N(C)[C@H]1[C@@](O)(C(=O)OC)[C@H](OC(C)=O)[C@]4(CC)C=CCN5CC[C@]31[C@@H]54)C2 [Vinorelbine] | 20 | 0.8 | synergistically enhanced | 8 | synergistically enhanced | synergistically enhanced | 60 |
| CC(=O)O[C@H]1C(=O)[C@@]2(C)[C@H]([C@H](OC(=O)c3ccccc3)[C@]3(O)C[C@H](OC(=O)[C@H](O)[C@@H](NC(=O)c4ccccc4)c4ccccc4)C(C)=C1C3(C)C)[C@]1(OC(C)=O)CO[C@@H]1C[C@@H]2O [Paclitaxel] | 10 | 0.05 |  | 8 |  |  | 100 |
